Measured values reported in patent US12692274B2, “Tetrahydroisoquinoline derivatives for the treatment of red blood disorders and inflammatory diseases” (Sanofi, priority 2020, dated 2026).
Several values for one entry are separate records, joined by “and”; a condition that tells them apart may be missing. Equal entries are not always repeated. Where two headings read alike, the source gives them in different places.

Key:
[1] = target: HIS-Keap1 full length / Biotin-Nrf2 (16-mer) (Homo sapiens, UniProt Q14145); test: biochemical
[2] = system: NQO1 activation in BEAS-2B cells; test: BEAS-2B cellular MTT assay of NQO1 activation, 0% HSA; type: cell-based
Method: The growth rate of the BEAS-2B cells changed based on the lot of BEGM SingleQuots in the BEGM media. The cell growth rate was determined for each lot of SingleQuots. Ideally, cells were thawed into media with the new lot of SingleQuots and grown for two passages before testing; however, growing an active culture in the new lot of media for two to three passages before testing was also acceptable. Until the cell growth rate was determined, cells were seeded at different densities (cells/cm^2) in multiple tissue culture flasks in order to avoid the cells becoming more than 70% confluent. Cells should not go above 70% confluent as the cells differentiate when they become confluent. After the cells were grown in the new lot of media as described above, the number of cells per well needed to seed in the collagen plates was determined by seeding different numbers of cells per well and incubating for 48 hours. Cell confluency was checked after 48 hours and a cell number that results in just below to just above confluency was chosen for future plate seeding. Cell confluency in the assay plate was 95-100% confluent after 48 hours.
Cell media consists of BEBM basal media with the BEGM SingleQuots added. SingleQuots vials were thawed in the tissue culture hood, and GA-1000 (Gentamicin-Amphotericin) was not added.
If complete media was to be used immediately, BEBM basal media was warmed to room temperature in the hood, but not as high as 37° C. When the media was made for future use, SingleQuots were added to cold BEBM. One at a time, the SingleQuots components (except GA-1000) were added to the BEBM media. After removal of each component from the vial, the vial was rinsed with 0.5-1 mL of BEBM (depending on the volume the vial could hold) and added to the bottle of BEBM. Once all components were added, the label that comes with the SingleQuots kit was put on the bottle of media and the date was recorded. The bottle of media was mixed by gentle shaking. The media was not filtered. This media was stored at 4° C., with any leftover media disposed of one month after the date the SingleQuots were added.
BEAS-2B Cell Splitting Protocol:
First, Trypsin was warmed to 37° C. in the water bath. The media was then warmed to room temperature by letting it sit in the tissue culture hood, but not as high as 37° C. The media was aspirated from flask(s) and the flask(s) were washed with PBS. From 1 to 1.5 mL of warm trypsin were added to each flask and incubated at 37° C. until cells came off the flask on their own (~8-10 minutes), with no vigorous tapping on the flask to detach the cells.
Media was added to each flask to a total volume of 8-10 mL per flask and transferred to 15 mL conical tube(s). The cells were spun down at 120 g for 5 minutes, level 5 brake. The cells can be spun down between 100 and 150 g. Next the media was aspirated and the cell pellet was resuspended in fresh media by pipetting up and down and flicking the tube side to side. Any clumps of cells that remained were allowed to settle to the bottom of the tube before the top suspension was transferred into another tube, leaving about 1 mL of media in the original tube. The 1 mL of media and cell clumps were mixed with a single channel p1000 pipette, and any remaining clumps were removed before adding the cells in suspension to the other tube. The suspension was mixed with a pipette, an aliquot was removed, and the cells were counted. The amount of cells/cm^2 desired was calculated and the required volume of cells was added to tissue culture flasks. For example, use of SingleQuots with ~6000 cells/cm^2 was appropriate for a three day incubation and ~3000 cells/cm^2 for a five day incubation. Optimal cell density differed depending on lot of SingleQuots. The flasks were incubated at 37° C. in 5% CO2.
Day One: Seeding BEAS-2B Cells in Collagen Plates:
Plate(s) were either seeded with 0.3% or 0% HSA. While the protocol was similar for both conditions any differences are noted herein below. […]

[3] = serum free, read-out: BEAS EC50 (nM) serum free
[4] = Homo sapiens, serum free, read-out: BEAS EC50 (nM) serum free
[5] = Homo sapiens, Serum Free W, read-out: BEAS EC50 (nM) Serum Free W
[6] = Serum Free W, read-out: BEAS EC50 (nM) Serum Free W

Chain of HIS-Keap1 full length / Biotin-Nrf2 (16-mer) (Q14145 whole entry): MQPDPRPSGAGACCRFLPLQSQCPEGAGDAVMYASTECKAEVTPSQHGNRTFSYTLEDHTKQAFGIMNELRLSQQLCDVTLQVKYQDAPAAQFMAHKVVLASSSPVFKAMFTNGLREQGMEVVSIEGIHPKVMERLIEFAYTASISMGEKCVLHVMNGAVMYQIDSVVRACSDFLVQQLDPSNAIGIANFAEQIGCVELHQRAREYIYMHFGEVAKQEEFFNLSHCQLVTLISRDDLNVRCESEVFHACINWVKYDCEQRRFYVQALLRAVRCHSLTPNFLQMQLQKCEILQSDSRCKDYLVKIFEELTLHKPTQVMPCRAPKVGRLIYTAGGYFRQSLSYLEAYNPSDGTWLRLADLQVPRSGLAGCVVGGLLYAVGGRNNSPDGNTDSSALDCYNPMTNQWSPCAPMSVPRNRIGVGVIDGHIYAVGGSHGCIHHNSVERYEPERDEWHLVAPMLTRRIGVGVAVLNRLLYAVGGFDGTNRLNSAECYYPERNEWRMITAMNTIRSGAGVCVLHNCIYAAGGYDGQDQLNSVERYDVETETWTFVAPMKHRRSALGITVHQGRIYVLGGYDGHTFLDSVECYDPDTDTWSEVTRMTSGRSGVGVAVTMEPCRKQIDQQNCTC

SMILES | IC50 [1] | EC50 [2, 3] [nM] | EC50 [2, 4] [nM] | EC50 [2, 5] [nM] | EC50 [2, 6]
COc1cc2ccc1CCCCCn1nnc3c(C)c(ccc31)C(CC(=O)O)c1ccc3c(c1)CN(CC3)C2=O (stereo not shown) [Compound 190] | 4.2 nM and 4.4 nM and 1.1 nM (2×) | 1 | – | – | –
O=C(O)CC1c2ccc3c(c2)CN(CC3)C(=O)c2ccc(cc2C(F)(F)F)OCCCCCCn2nnc3cc1ccc32 (stereo not shown) [Compound 308] | < 0.1 nM | – | 910 | – | –
Cc1cc2ncc1[C@@H]([C@@H](C)C(=O)O)c1ccc3c(c1)CN(CC3)C(=O)c1ccc(cc1)C/C=C/CCO2 [Compound 61] | 720 nM and 651 nM | – | – | 422 | 245 nM
Cc1c2ccc3c1nnn3C/C=C/CCCc1ccc(c(F)c1)C(=O)N1CCc3ccc(cc3C1)C2C(C)C(=O)O (stereo not shown) [Compound 375] | 1.4 nM | – | – | 2.9 | –
Cc1c2n(C)c3ccc(cc13)CCCCCCn1nnc3c(C)c(cnc31)[C@H](CC(=O)O)c1ccc3c(c1)CN(CC3)C2=O [Compound 68] | 0.3 nM | – | – | 0.4 | 0.3 nM
Cc1c2ccc(c1C)C(=O)N1CCc3ccc(cc3C1)C(CC(=O)O)c1ccc3c(c1)nnn3CCCCCCO2 (stereo not shown) [Compound 312] | < 0.1 nM | – | 40.7 | – | –
Cc1c2cnc3c1nnn3CCCCCCc1ccc(cc1)C(=O)N1CCc3ccc(cc3C1)[C@@H]2CC(=O)O [Compound 138] | 0.1 nM | 0.3 | 0.5 | – | –
Cc1c2cnc3c1nnn3CCCCCCc1ccc(c(F)c1)C(=O)N1CCc3ccc(cc3C1)C2CC(=O)O (stereo not shown) [Compound 146] | 0.1 nM | – | 0.2 | – | –
C[C@H](C(=O)O)[C@H]1c2ccc(nc2)OCCCCCc2ccc(cc2)C(=O)N2CCc3ccc1cc3C2 [Compound 60] | 580 nM and 614 nM | – | – | 333 | 258 nM and 226 nM
Cn1c2cc3cc(cnc31)CCCCCCn1nnc3c(Cl)c(ccc31)C(CC(=O)O)c1ccc3c(c1)CN(CC3)C2=O (stereo not shown) [Compound 199] | 3.7 nM and 3.6 nM | 11.9 | 12.7 | – | –
Cc1c2ccc3c1nnn3CCCCCC(F)(F)Oc1ccc(cc1)C(=O)N1CCc3ccc(cc3C1)C2CC(=O)O (stereo not shown) [Compound 311] | 0.1 nM and < 0.1 nM | – | 10.4 | – | –
Cc1c2ccc3c1nnn3CCCCCc1ccc(c3c1ccn3C)C(=O)N1CCc3ccc(cc3C1)[C@@H]2CC(=O)O [Compound 26] | 0.4 nM and 0.3 nM | – | – | – | –
O=C(O)C[C@H]1c2ccc3c(c2)CN(CC3)C(=O)c2cccc(c2)OCCCCCn2nnc3cc1ccc32 [Compound 434] | 17.8 nM and 55.4 nM | – | – | – | –
Cc1c2ccc3c1nnn3CCCCCCc1ccc(c(F)c1)C(=O)N1CCc3ccc(cc3C1)[C@@H]2[C@H](C)C(=O)O [Compound 142] | 11.3 nM and 11.6 nM | – | – | 34.5 | 36.1 nM
O=C(O)CC1c2ccc3c(c2)CN(CC3)C(=O)c2ccc(cc2)CCCCCn2nnc3c(Cl)c1ccc32 (stereo not shown) [Compound 249] | 1.1 nM and 1.3 nM | – | – | – | –
CC(C)(C(=O)O)C1c2ccc3c(c2)CN(CC3)C(=O)c2c(F)cc(cc2F)CCCCCn2nnc3cc1ccc32 (stereo not shown) [Compound 282] | 0.4 nM (2×) and 0.3 nM (3×) and 1.1 nM | – | – | – | –
Cc1c2ccc3c1nnn3CCCCCc1ccc(c3ccn(C)c13)C(=O)N1CCc3ccc(cc3C1)[C@@H]2CC(=O)O [Compound 33] | 0.4 nM and 0.3 nM | – | – | – | –
Cc1ccc2cc1C(=O)N1CCc3ccc(cc3C1)C(CC(=O)O)c1ccc3c(c1)nnn3C/C=C/CO2 (stereo not shown) [Compound 432] | 93.1 nM and 93.3 nM | – | – | – | –
O=C(O)CC1c2ccc3c(c2)CN(CC3)C(=O)c2cccc(c2)OCCCCn2nnc3ccc1cc32 (stereo not shown) [Compound 435] | > 30000 nM | – | – | – | –
O=C(O)CC1c2ccc3c(c2)CN(CC3)C(=O)c2ccc(cn2)OCCCCCCn2nnc3cc1ccc32 (stereo not shown) [Compound 328] | 0.9 nM and < 0.1 nM | – | 6710 | – | –
O=C(O)CC1c2ccc3c(c2)CN(CC3)C(=O)c2ccc(cc2)OCC=CCn2nnc3cc1ccc32 (mixture of isomers) [Compound 419, 2-[(12E)-20-oxo-15-oxa-8,9,10,21-tetrazahexacyclo[19.5.3.216,19.13,7.06,10.024,28]dotriaconta-1(27),3,5,7(32),8,12,16(31),17,19(30),24(28),25-undecaen-2-yl]acetic Acid] | 5.7 nM and 19.1 nM and 16.8 nM and 10.8 nM | – | – | – | –

SMILES | IC50 [1] | EC50 [2, 3] [nM] | EC50 [2, 4] [nM] | EC50 [2, 5] [nM] | EC50 [2, 6]
Cc1c2ccc3c1nnn3CCOCCOc1ccc(cc1)C(=O)N1CCc3ccc(cc3C1)C2CC(=O)O (stereo not shown) [Compound 398] | 5.2 nM and 17.3 nM | – | – | – | –
O=C(O)CC1c2ccc3c(c2)CN(CC3)C(=O)c2ccc(cc2)OCCOCCn2nnc3cc1ccc32 (stereo not shown) [Compound 412] | 28.7 nM and 47.9 nM | – | – | – | –
COc1cc2ccc1C(=O)N1CCc3ccc(cc3C1)C(CC(=O)O)c1cnc3c(nnn3CCCCCC2)c1C (stereo not shown) [Compound 103] | 1.2 nM | – | – | 22.1 | 36.8 nM
Cc1c2ccc3c1nnn3CCCCCOc1cccc(c1)C(=O)N1CCc3ccc(cc3C1)C2CC(=O)O (stereo not shown) [Compound 421] | 10.1 nM and 8.4 nM | – | – | – | –
Cc1ccc2cc1C(=O)N1CCc3ccc(cc3C1)[C@H]([C@@H](C)C(=O)O)c1ccc3c(nnn3CCCCCO2)c1C [Compound 411] | 5.2 nM and 10.1 nM | – | – | – | –
O=C(O)CC1c2ccc3c(c2)CN(CC3)C(=O)c2cccc(c2)OC/C=C/CCn2nnc3ccc1cc32 (stereo not shown) [Compound 436] | 2670 nM and 3410 nM | – | – | – | –
Cc1c2ccc3c1nnn3CCCCCCc1ccc(c3c1ccn3C)C(=O)N1CCc3ccc(cc3C1)[C@@H]2CC(=O)O [Compound 27] | 0.4 nM and 0.3 nM | – | – | – | –
Cc1c2ccc3c1nnn3CCCCCc1cnc(nc1)C(=O)N1CCc3ccc(cc3C1)C2CC(=O)O (stereo not shown) [Compound 204] | 3 nM and 2.7 nM | 3290 | 2880 | – | –
O=C(O)CC1c2ccc(nc2)OCCCCCOc2cccc(c2)C(=O)N2CCc3ccc1cc3C2 (stereo not shown) [Compound 344] | 4410 nM and 4850 nM | – | – | – | –
O=C(O)CC1c2ccc3c(c2)CN(CC3)C(=O)c2ccc(cc2F)OCCCCCCn2nnc3c(Cl)c1ccc32 (stereo not shown) [Compound 250] | 2 nM and 1.9 nM | 16.5 | 16.4 | – | –
O=C(O)CC1c2ccc3c(c2)CN(CC3)C(=O)c2cccc(c2)OC/C=C/CCn2nc3ccc1cc3n2 (stereo not shown) [Compound 437] | 219 nM and 234 nM | – | – | – | –
Cc1c2ccc3c1nnn3CCCCCCc1ccc3c(c1)cc(n3C)C(=O)N1CCc3ccc(cc3C1)[C@@H]2[C@@H](C)C(=O)O [Compound 28] | 0.4 nM and 0.5 nM | – | – | – | –
Cc1cc2cnc1OCC/C=C/Cc1ccc(cc1)C(=O)N1CCc3ccc(cc3C1)[C@@H]2[C@H](C)C(=O)O [Compound 74] | 24.4 nM and 36.4 nM | – | – | 4.7 | 7.1 nM
Cc1c2ccc3c1nnn3C/C=C/CCc1ccc3c(c1)cc(n3C)C(=O)N1CCc3ccc(cc3C1)[C@H]2[C@H](C)C(=O)O [Compound 360] | 0.9 nM | – | – | – | –
Cc1c2ccc3c1nnn3CCCCCCCc1ccc(cc1)C(=O)N1CCc3ccc(cc3C1)C2CC(=O)O (stereo not shown) [Compound 313] | < 0.1 nM and 0.4 nM | – | 8.8 | – | –
O=C(O)CC1c2cnc(nc2)OCCCCCc2ccc(c(Cl)c2)C(=O)N2CCc3ccc1cc3C2 (stereo not shown) [Compound 229] | 10.4 nM | 2230 | 1430 | – | –
Cc1c2ccc3c1ncn3CCCCCCc1ccc(cc1)C(=O)N1CCc3ccc(cc3C1)[C@H]2CC(=O)O (single isomer, unassigned) [Compound 385] | 238 nM and 244 nM | 2850 | 2250 | – | –
Cc1ccc2cc1C(=O)N1CCc3ccc(cc3C1)C(CC(=O)O)c1ccc3c(c1)nnn3CCCCCO2 (stereo not shown) [Compound 422] | 11.3 nM and 12.2 nM | – | – | – | –
O=C(O)CC1c2ccc3c(c2)CN(CC3)C(=O)c2cccc(c2)OCCCCCn2nnc3cc1ccc32 (stereo not shown) [Compound 440] | 64.9 nM and 70.3 nM and 114 nM and 113 nM | – | – | – | –
Cc1c2ccc3nn(nc13)CC/C=C/COc1cccc(c1)C(=O)N1CCc3ccc(cc3C1)C2CC(=O)O (stereo not shown) [Compound 425] | 4320 nM and 5390 nM | – | – | – | –
